Test: Body weight, Study 3
Format: in vivo, ICR (CD-1) mice
Conditions: in g
From the text: Each group was composed of 10 female mice.
Strain H neonatal mice, used in Study 1, were born at the Animal Laboratory of the National Center of Oncology (Sofia, Bulgaria). The mice were housed in Makrolon™ cages on sawdust bedding and maintained on standard rodent chow (Kostinbrod, Bulgaria) and allowed drinking water ad libitum. Swiss ICR (CD-1) mice, either neonatal (Study 2) or two- month old (Study 3), were purchased from Harlan Laboratories (San Pietro al Natisone, Udine, Italy). The mice were housed in Makrolon™ cages on sawdust bedding and maintained on standard rodent chow (Teklad 9607, Harlan Laboratories) and tap water ad libitum. The animal room temperature was 23 ± 2°C, with a relative humidity of 55% and a 12 h day-night cycle. Housing and treatments of mice were in accordance with NIH, European (2010/63 UE Directive), and institutional guidelines. The issuance of the NIH Office of Laboratory Animal Welfare (OLAW) with the University of Genoa bears the identification number A5899-01 and is effective until February 28, 2021. The Institutional Animal Care and Use Committee (IACUC) protocol was approved by the Fox Chase Cancer Center Committee on April 13, 2015.
Celecoxib was supplied by the US National Cancer Institute (NCI) via MRIGlobal (Kansas City, MO).
In Study 1 and Study 2, feeding of the drug-containing diet started after weanling (about 4 weeks) and continued until the 10th week of life.
Treatment-related differences in body weights, in the frequency of MN NCE, and in the levels of pulmonary DNA adducts and 8-oxo-dGuo, all of them expressed as means ± SE within each group of mice, were evaluated for statistical significance by ANOVA followed by Student's t test for unpaired data. miRNA microarray data, after local background subtraction, log transformation, and normalization were analyzed by GeneSpring software (Agilent, Santa Clara, CA), and expression data were median centered by using the GeneSpring normalization option.

Cc1ccc(-c2cc(C(F)(F)F)nn2-c2ccc(S(N)(=O)=O)cc2)cc1 [Celecoxib, 4-[5-(4-methylphenyl)-3-(trifluoromethyl)-1H-pyrazol-1-yl] benzene-1-sulfonamide]
body weight (females, MCS-exposed, high dose celecoxib): 26.7 ± 0.56 | body weight (females, MCS-exposed, low dose celecoxib): 30.9 ± 1.24 | body weight (females, smoke-free, high dose (1,600 mg/kg diet)): 31.5 ± 0.98 | body weight (females, smoke-free, low dose (20 mg/kg diet)): 32.6 ± 1.82 | body weight (males, smoke-free, high dose (1,600 mg/kg diet)): 42.1 ± 0.61
